Measured values as given in patent publication US20090286883A1, “TREATMENT OF HEART FAILURE AND ASSOCIATED CONDITIONS BY ADMINISTRATION OF MONOAMINE OXIDASE INHIBITORS” (Universita' degli Studi di Padova (University of Padua), priority 2008, published 2009).
Where “and” joins values, the source holds several entries; their conditions need not be identical. Equal entries are not always repeated.

What was measured:
myocytes = assay: EMT gene expression upon stimulation with tyramine; assay type: cell-based; conditions: tyramine 10 μM
cardiomyocytes = assay: NFAT4 gene expression upon stimulation with tyramine in absence or presence of clorgyline; assay type: cell-based
HL-1 cardiomyocytes = assay: Oxidative stress (mitochondrial ROS production) upon H2O2 or arachidonic acid; assay type: cell-based; conditions: for Levels of oxidative stress, Arachidonic acid (% increase vs control): 5 μM arachidonic acid, no treatment 145.6 ± 3.8; for Levels of oxidative stress, Arachidonic acid (% increase vs control) / Levels of oxidative stress, H2O2 (% increase vs control): clorgyline 1 μM; for Levels of oxidative stress, H2O2 (% increase vs control): 100 μM H2O2, no treatment 156.2 ± 4.3; for rise in ROS production / protection: H2O2 or arachidonic acid stimulated HL-1 cardiomyocytes, cell pretreatment
Method: In vivo, mitochondria and the respiratory chain, in particular, are considered a major intracellular ROS source^15. MAOs are located in the outer membrane of these organelles and MAO-A can increase oxidative burden. When HL-1 cardiomyocytes were incubated with 100 μM H2O2 or 5 μM arachidonic acid, a rise in ROS production at mitochondrial level was observed (Table 6).

[1] = tested on: neonatal rat cardiomyocytes; assay: MAO-A and BNP gene expression after NE in absence or presence of clorgyline; assay type: cell-based
Excerpt: This process may contribute to the development of […]

caspase-3 = assay: Cleaved caspase-3 levels after 6 weeks of TAC; assay type: in vivo; conditions: 6 weeks TAC mice, FIG. 1
Excerpt: Levels of cleaved caspase-3 were markedly elevated after 6 weeks in TAC mice vs shams.

[2] = tested on: TAC-induced pressure overload; assay: Transverse aortic constriction (TAC) pressure overload in mice, cardiac morphology and in vivo ventricular function; conditions: for EF (ejection fraction) / FS (fractional shortening) / Heart rate / IVS (interventricular septum) / LV mass/BW / LVEDD (left ventricular end-diastolic dimension) / LVESD (left ventricular end-systolic dimension) / LVPW (left ventricular posterior wall): clorgyline 1 mg/kg/day

## NCCc1ccc(O)cc1 [tyramine]
myocytes
  increase in EMT gene expression: 2 fold
myocytes; control 0.5 ± 0.04
  EMT/GAPDH gene expression: 0.97 ± 0.2
cardiomyocytes; tyramine incubation of cardiomyocytes
  increase of NFAT4 expression: 2 fold
cardiomyocytes; tyramine, −clorgyline, control 0.24 ± 0.03
  NFAT4 gene expression (normalized to GAPDH): 0.38 ± 0.01

## C#CCN(C)[C@H](C)Cc1ccccc1 [deprenyl]
HL-1 cardiomyocytes
  Levels of oxidative stress, Arachidonic acid (% increase vs control): 142.4 ± 0.3 % increase vs control
  Levels of oxidative stress, H2O2 (% increase vs control): 150.7 ± 4.9 % increase vs control
  rise in ROS production / protection: No protection

## NC[C@H](O)c1ccc(O)c(O)c1 [NE, norepinephrine]
[1]; NE 10 μM for 24 hrs
  MAO-A gene expression and hypertrophy (BNP expression): up-regulation of MAO-A gene expression and induction of hypertrophy
[1]; NE 10 μM, 24 hrs, control 0.58 ± 0.05
  MAO-A (vs GAPDH) gene expression: 1.85 ± 0.04
[1]; NE 10 μM, 24 hrs, control 1 ± 0
  BNP (vs GAPDH) gene expression: 8.9 ± 1.4

## C#CCN(C)CCCOc1ccc(Cl)cc1Cl [clorgyline]
[1]; NE 10 μM 24 hrs in presence of clorgyline, NE alone 8.9 ± 1.4
  BNP (vs GAPDH) gene expression: 4.85 ± 0.9 ^#
caspase-3
  caspase-3 activation (cleaved caspase-3): prevented caspase-3 activation
[2]; TAC 3 weeks
  EF (ejection fraction): 91.6 ± 0.4^C %
  FS (fractional shortening): 56.8 ± 1.9^C %
  Heart rate: 702 ± 12 bpm
  IVS (interventricular septum): 1.3 ± 0.02^B mm
  LV mass/BW: 6.4 ± 0.3^B mg/g
  LVEDD (left ventricular end-diastolic dimension): 2.9 ± 0.06 mm
  LVESD (left ventricular end-systolic dimension): 1.2 ± 0.06 mm
  LVPW (left ventricular posterior wall): 1.2 ± 0.03^B mm
[2]; TAC 6 weeks
  Heart rate: 670 ± 13.7 bpm
  IVS (interventricular septum): 1.4 ± 0.03^B mm
  LV mass/BW: 7.2 ± 0.4^B, D mg/g
  LVEDD (left ventricular end-diastolic dimension): 3.0 ± 0.08^D mm
  LVESD (left ventricular end-systolic dimension): 1.2 ± 0.04^D mm
  LVPW (left ventricular posterior wall): 1.3 ± 0.03^B, D mm
[2]; TAC 6 weeks, listed as CLO
  EF (ejection fraction): 93.6±0.4% and 94.3 ± 0.4^D %
  FS (fractional shortening): 61±0.8% and 61.6 ± 0.9^D %
[2]; TAC, vs saline-treated TAC mice
  levels of hypertrophy (LV mass, LVEDD, LVESD): reduced
[2]; after 3 weeks of TAC, compared to sham operated animals
  wall thickness: increased
[2]; after 3 weeks of TAC, vs saline-treated TAC mice
  LV function: significantly better
[2]; at 6 weeks of TAC, vs saline-treated TAC mice
  LV function: improved
cardiomyocytes; Control (no tyramine), +clorgyline
  NFAT4 gene expression (normalized to GAPDH): 0.23 ± 0.02
cardiomyocytes; Tyramine, +clorgyline (preincubation)
  NFAT4 gene expression (normalized to GAPDH): 0.32 ± 0.02
cardiomyocytes; preincubation with clorgyline prior to tyramine treatment
  effect on tyramine-induced increase of NFAT4 expression: reduced this effect significantly
HL-1 cardiomyocytes
  Levels of oxidative stress, Arachidonic acid (% increase vs control): 98.3 ± 1.3 % increase vs control
  Levels of oxidative stress, H2O2 (% increase vs control): 122.6 ± 3 % increase vs control
  rise in ROS production / protection: completely prevented, or reduced
